target: T1, human orexin type 2 receptor (Homo sapiens, UniProt O43614); assay: Measurement of orexin type 2 receptor agonist activity (calcium indicator fluorescence, CHO cells forcibly expressing human OX2 receptor); assay type: cell-based; settings: compound at 3 μM; 0% = DMSO, 100% = orexin A (human) 10 nM
T1 construct: expressed in transfected cells
T1 sequence (O43614 1-444): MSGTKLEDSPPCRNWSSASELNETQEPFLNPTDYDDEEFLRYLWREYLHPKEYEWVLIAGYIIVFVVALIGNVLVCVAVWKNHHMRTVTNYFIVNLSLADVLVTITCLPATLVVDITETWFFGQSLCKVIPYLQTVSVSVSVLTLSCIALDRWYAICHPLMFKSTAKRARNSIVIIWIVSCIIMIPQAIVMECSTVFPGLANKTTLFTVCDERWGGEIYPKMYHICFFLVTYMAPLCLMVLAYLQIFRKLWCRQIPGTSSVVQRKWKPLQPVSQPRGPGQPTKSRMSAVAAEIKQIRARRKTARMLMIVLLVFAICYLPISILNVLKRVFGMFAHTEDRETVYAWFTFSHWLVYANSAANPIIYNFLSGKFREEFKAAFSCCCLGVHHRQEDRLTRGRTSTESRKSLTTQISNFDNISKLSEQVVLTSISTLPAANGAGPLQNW
In short: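 Agonist response normalised between vehicle (0%) and orexin A at 10 nM final (100%), from kinetic Fluo-4 calcium signals recorded for about 2 min after compound addition. Cells: stable human OX2R CHO clone, dye-loaded 30 min at 37 °C plus 30 min at room temperature.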

Structure (SMILES)	OX2R agonist activity (3 μM, %)
O=C(C1CCO1)N1C[C@H](F)[C@H](NS(=O)(=O)C2CC2)[C@@H]1Cc1cccc(-c2ccccc2F)c1F (stereo partly drawn) [Example 483, N-[(2S,3R,4S)-2-[(2,2′-difluroo[1,1′-biphenyl]-3-yl)methyl]-4-fluoro-1-(oxetane-2-carbonyl)pyrrolidin-3-yl]cyclopropanesulfonamide]	108%
Cc1cccc(-c2cccc(C[C@H]3[C@@H](NS(=O)(=O)C4CC4)[C@@H](F)CN3C(=O)C3CCO3)c2F)c1 (stereo partly drawn) [Example 484, N-[(2S,3R,4S)-4-fluoro-2-[(2-fluoro-3′-methyl[1,1′-biphenyl]-3-yl)methyl]-1-(oxetane-2-carbonyl)pyrrolidin-3-yl]cyclopropanesulfonamide]	90%
O=C(C1CCO1)N1C[C@H](F)[C@H](NS(=O)(=O)C2CC2)[C@@H]1Cc1cccc(-c2cccc(Cl)c2)c1F (stereo partly drawn) [Example 485, N-[(2S,3R,4S)-2-[(3′-chloro-2-fluoro[1,1′-biphenyl]-3-yl)methyl]-4-fluoro-1-(oxetane-2-carbonyl)pyrrolidin-3-yl]cyclopropanesulfonamide]	93%
Cc1cc(F)cc(-c2cccc(C[C@H]3[C@@H](NS(=O)(=O)C4CC4)[C@@H](F)CN3C(=O)C3CCO3)c2F)c1 (stereo partly drawn) [Example 486, N-[(2S,3R,4S)-2-[(2,3′-difluoro-5′-methyl[1,1′-biphenyl]-3-yl)methyl]-4-fluoro-1-(oxetane-2-carbonyl)pyrrolidin-3-yl]cyclopropanesulfonamide]	88%
Cc1cccc(-c2cccc(C[C@H]3[C@@H](NS(=O)(=O)C4CC4)[C@@H](F)CN3C(=O)C3CCO3)c2F)c1F (stereo partly drawn) [Example 487, N-[(2S,3R,4S)-2-[(2,2′-difluoro-3′-methyl[1,1′-biphenyl]-3-yl)methyl]-4-fluoro-1-(oxetane-2-carbonyl)pyrroldiin-3-yl]cyclopropanesulfonamide]	95%
Cc1ccc(F)c(-c2cccc(C[C@H]3[C@@H](NS(=O)(=O)C4CC4)[C@@H](F)CN3C(=O)C3CCO3)c2F)c1 (stereo partly drawn) [Example 488, N-[(2S,3R,4S)-2-[(2,2′-difluoro-5′-methyl[1,1′-biphenyl]-3-yl)methyl]-4-fluoro-1-(oxetane-2-carobnyl)pyrrolidin-3-yl]cycloproapnesulfonamide]	95%
Cc1cccc(-c2cccc(C[C@H]3[C@@H](NS(=O)(=O)C4CC4)[C@@H](F)CN3C(=O)C3CCO3)c2F)c1 (stereo partly drawn) [Example 489, N-[(2S,3R,4S)-4-fluoro-2-[(2-fluoro-3′-methyl[1,1′-biphenyl]-3-yl)methyl]-1-(oxetane-2-carbonyl)pyrrolidin-3-yl]cyclopropanesulfonamide]	92%
Cc1cccc(-c2cccc(C[C@H]3[C@@H](NS(=O)(=O)C4CC4)[C@@H](F)CN3C(=O)C3CCO3)c2F)c1F (stereo partly drawn) [Example 490, N-[(2S,3R,4S)-2-[(2,2′-difluoro-3′-methyl[1,1′-biphenyl]-3-yl)methyl]-4-fluoro-1-(oxetane-2-carobnyl)pyrrolidin-3-yl]cyclopropanesulfonamide]	93%
Cc1cc(F)cc(-c2cccc(C[C@H]3[C@@H](NS(=O)(=O)C4CC4)[C@@H](F)CN3C(=O)C3CCO3)c2F)c1 (stereo partly drawn) [Example 491, N-[(2S,3R,4S)-2-[(2,3′-difluoro-5′-methyl[1,1′-biphenyl]-3-yl)methyl]-4-fluoro-1-(oxetane-2-carbonyl)pyrrolidin-3-yl]cyclopropanesulfonamide]	93%
Cc1ccc(F)c(-c2cccc(C[C@H]3[C@@H](NS(=O)(=O)C4CC4)[C@@H](F)CN3C(=O)C3CCO3)c2F)c1 (stereo partly drawn) [Example 492, N-[(2S,3R,4S)-2-[(2,2′-difluoro-5′-methyl[1,1′-biphenyl]-3-yl)methyl]-4-fluoro-1-(oxetane-2-carbonyl)pyrrolidin-3-yl]cyclopropanesulfonamide]	90%
O=C(C1CCO1)N1C[C@H](F)[C@H](NS(=O)(=O)C2CC2)[C@@H]1Cc1cccc(-c2cc(F)cc(F)c2)c1F (stereo partly drawn) [Example 493, N-{(2S,3R,4S)-4-fluoro-1-(oxetane-2-carbonyl)-2-[(2,3′,5′-trifluoro[1,1′-biphenyl]-3-yl)methyl]pyrrolidin-3-yl}cyclopropanesulfonamide]	95%
O=C(C1CCO1)N1C[C@H](F)[C@H](NS(=O)(=O)C2CC2)[C@@H]1Cc1cccc(-c2cccc(F)c2F)c1F (stereo partly drawn) [Example 494, N-{(2S,3R,4S)-4-fluoro-1-(oxetane-2-carbonyl)-2-[(2,2′,3′-trifluoro[1,1′-biphenyl]-3-yl)methyl]pyrrolidin-3-yl}cyclopropanesulfonamide]	96%
O=C(C1CCO1)N1C[C@H](F)[C@H](NS(=O)(=O)C2CC2)[C@@H]1Cc1cccc(-c2cc(F)ccc2F)c1F (stereo partly drawn) [Example 495, N-{(2S,3R,4S)-4-fluoro-1-(oxetane-2-carbonyl)-2-[(2,2′,5′-trifluoro[1,1′-biphenyl]-3-yl)methyl]pyrrolidin-3-yl}cyclopropanesulfonamide]	92%
O=C(C1CCO1)N1C[C@H](F)[C@H](NS(=O)(=O)C2CC2)[C@@H]1Cc1cccc(-c2ccccc2)c1F (stereo partly drawn) [Example 496, N-[(2S,3R,4S)-4-fluoro-2-[(2-fluoro[1,1′-biphenyl]-3-yl)methyl]-1-(oxetane-2-carbonyl)pyrrolidin-3-yl]cyclopropanesulfonamide]	95%
O=C(C1CCO1)N1C[C@H](F)[C@H](NS(=O)(=O)C2CC2)[C@@H]1Cc1cccc(-c2cccc(Cl)c2)c1F (stereo partly drawn) [Example 497, N-[(2S,3R,4S)-2-[(3′-chloro-2-fluoro[1,1′-biphenyl]-3-yl)methyl]-4-fluoro-1-(oxetane-2-carbonyl)pyrrolidin-3-yl]cyclopropanesulfonamide]	91%
CCS(=O)(=O)N[C@H]1[C@@H](F)CN(C(=O)C2CCO2)[C@H]1Cc1cccc(-c2cccc(C)c2)c1F (stereo partly drawn) [Example 498, N-[(2S,3R,4S)-4-fluoro-2-[(2-fluoro-3′-methyl[1,1′-biphenyl]-3-yl)methyl]-1-(oxetane-2-carbonyl)pyrrolidin-3-yl]ethanesulfonamide]	99%
CCS(=O)(=O)N[C@H]1[C@@H](F)CN(C(=O)C2CCO2)[C@H]1Cc1cccc(-c2cccc(C)c2F)c1F (stereo partly drawn) [Example 499, N-[(2S,3R,4S)-2-[(2,2′-difluoro-3′-methyl[1,1′-biphenyl]-3-yl)methyl]-4-fluoro-1-(oxetane-2-carbonyl)pyrrolidin-3-yl]ethanesulfonamide]	96%
CCS(=O)(=O)N[C@H]1[C@@H](F)CN(C(=O)C2CCO2)[C@H]1Cc1cccc(-c2ccc(F)c(C)c2)c1F (stereo partly drawn) [Example 500, N-[(2S,3R,4S)-2-[(2,4′-difluoro-3′-methyl[1,1′-biphenyl]-3-yl)methyl]-4-fluoro-1-(oxetane-2-carbonyl)pyrrolidin-3-yl]ethanesulfonamide]	98%
CCS(=O)(=O)N[C@H]1[C@@H](F)CN(C(=O)C2CCO2)[C@H]1Cc1cccc(-c2cc(C)cc(F)c2)c1F (stereo partly drawn) [Example 501, N-[(2S,3R,4S)-2-[(2,3′-difluoro-5′-methyl[1,1′-biphenyl]-3-yl)methyl]-4-fluoro-1-(oxetane-2-carbonyl)pyrrolidin-3-yl]ethanesulfonamide]	96%
CCS(=O)(=O)N[C@H]1[C@@H](F)CN(C(=O)C2CCO2)[C@H]1Cc1cccc(-c2cc(C)ccc2F)c1F (stereo partly drawn) [Example 502, N-[(2S,3R,4S)-2-[(2,2′-difluoro-5′-methyl[1,1′-biphenyl]-3-yl)methyl]-4-fluoro-1-(oxetane-2-carbonyl)pyrrolidin-3-yl]ethanesulfonamide]	96%
CCS(=O)(=O)N[C@@H]1[C@H](Cc2cccc(-c3cccc(C(F)F)c3)c2F)N(C(=O)C2CCO2)CC1(F)F (stereo partly drawn) [Example 503, N-[(2S,3R)-2-{[3′-(difluoromethyl)-2-fluoro[1,1′-biphenyl]-3-yl]methyl}-4,4-difluoro-1-(oxetane-2-carbonyl)pyrrolidin-3-yl]ethanesulfonamide]	89%
CCS(=O)(=O)N[C@@H]1[C@H](Cc2cccc(-c3cccc(C(F)F)c3)c2F)N(C(=O)C2CCO2)CC1(F)F (stereo partly drawn) [Example 504, N-[(S,3R)-2-{[3′-(difluoromethyl)-2-fluoro[1,1′-biphenyl]-3-yl]methyl}-4,4-difluoro-1-(oxetane-2-carbonyl)pyrrolidin-3-yl]ethanesulfonamide]	90%
CCS(=O)(=O)N[C@@H]1[C@H](Cc2cccc(-c3cccc(C(F)F)c3)c2F)N(C(=O)C2CC(F)C2)CC1(F)F (stereo partly drawn) [Example 505, N-[(2S,3R)-2-{[3′-(difluoromethyl)-2-fluoro[1,1′-biphenyl]-3-yl]methyl}-4,4-difluoro-1-(3-fluorocyclobutane-1-carbonyl)pyrrolidin-3-yl]ethanesulfonamide]	88%
CCS(=O)(=O)N[C@@H]1[C@H](Cc2cccc(-c3cccc(C(F)F)c3)c2F)N(C(=O)C2CC(F)C2)CC1(F)F (stereo partly drawn) [Example 506, N-[(2S,3R)-2-{[3′-(difluoromethyl)-2-fluoro[1,1′-biphenyl]-3-yl]methyl}-4,4-difluoro-1-(3-fluorocyclobutane-1-carobnyl)pyrrolidin-3-yl]ethanesulfonamide]	100%

Source: US20230040770A1, “HETEROCYCLIC COMPOUND AND USE THEREOF” (TAKEDA PHARMACEUTICAL COMPANY LIMITED, priority 2019, published 2023)
